Test results as given in patent publication US20260062422A1 (Halda Therapeutics OpCo, Inc., priority 2022, published 2026).

Assays:
T47D cells = assay: Cellular growth inhibition assay for T47D cells, CellTiter-Glo; format: cell-based, human; settings: 72 hours treatment, CellTiter-Glo 2.0 cell viability
Outline: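 Cells are plated at 3000/well and allowed 24 h before treatment. Test compound in medium containing 0.5% DMSO is then added, with DMSO-only wells as negative control, and plates are incubated 72 h at 37 °C. ATP luminescence (CellTiter-Glo 2.0) is then fitted to four parameters to derive GI50.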

VCaP cells = assay: Cellular growth inhibition assay for VCaP cells, CellTiter-Glo; format: cell-based, human; settings: 72 hours treatment, CellTiter-Glo 2.0
Outline: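 GI50 values come from four-parameter curve fits of luminescence data normalized to a zero baseline. Compound, in medium with 0.5% DMSO, was added one day after plating and left for 72 h before CellTiter-Glo 2.0 addition.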

[1] = test system: T-Rex 293 cell line SC3 cells having increased expression of androgen receptor protein due to exposure to doxycycline; assay: Cellular growth inhibition, T-Rex 293 SC3 cells with doxycycline (androgen receptor induced), CellTiter-Glo; format: cell-based; settings: T-Rex 293 SC3 cells with 10 ng/mL doxycycline (increased androgen receptor expression)
Experimental: (§1) The following types of cells were prepared for this experiment: (i) a T-Rex 293 cell line having increased expression of androgen receptor protein due to exposure to doxycycline and (ii) a T-Rex 293 cell line lacking increased expression of androgen receptor protein. Ability of the test compounds to inhibit proliferation of the foregoing cell types was evaluated according to the procedures set forth below.
(§2) The doxycycline-inducible androgen receptor protein expressing cell line was established using the following protocol: T-Rex 293 cells were purchased from Invitrogen (Cat #R71007) and transfected using Lipofectamine 2000 with the wild-type androgen receptor protein sequence cloned into the pcDNA4/TO vector. Transfected cells were selected using 400 μg/mL Zeocin (Invitrogen Cat #R25001). Following selection, single clones were raised and maintained in Dulbecco's Modified Eagle Medium (DMEM) supplemented with 10% w/w Tetracycline-free fetal bovine serum (FBS) and 250 μg/mL Zeocin. Clones were analyzed for expression of androgen receptor protein in the presence and absence of 10 ng/mL doxycycline (Sigma Cat #D9891), and a single doxycycline-inducible clone (hereinafter “SC3”) was selected for use in downstream assays.
(§3) The SC3 cells were seeded on poly-D-lysine coated, black clear-bottom 384-well plates at 2500/well, in 25 μL Phenol Red Free Dulbecco's Modified Eagle Medium (DMEM) supplemented with 10% w/w charcoal-dextran treated fetal bovine serum (FBS) and 1% w/w pen-strep, with or without 10 ng/mL doxycycline. Pen-Strep is a commercially available mixture of penicillin G and streptomycin, which is used in mammalian cell culture media to prevent bacterial contamination. Phenol Red Free Dulbecco's Modified Eagle Medium (DMEM) supplemented with 10% w/w charcoal-dextran treated fetal bovine serum (FBS) and 1% w/w pen-strep, with or without 10 ng/mL doxycycline is herein referred to as Treatment Medium. Following seeding of cells in the plates, the plates were spun at 300×g for 30 seconds, then equilibrated to room temperature for 30 minutes, and then deposited in a humidified tissue culture incubator maintained at 37° C. with 5% CO2.
(§4) At 24 hours after seeding of the cells, dilutions of test compound were prepared in DMSO and dissolved in Treatment Medium, to achieve a final DMSO concentration of 0.5% w/w, thereby providing the Test Compound Solution. A 25 μL aliquot of the Test Compound Solution was added to cells in the well plates. An equal volume of a solution containing DMSO and Treatment Medium was used as a negative control. Following treatment of cells with Test Compound Solution or said equal volume of a solution containing DMSO and Treatment Medium, the plates were spun at 300×g for 30 seconds, and then left in an incubator for 72 hours. At the end of the treatment duration, cell viability was quantified with CellTiter-Glo 2.0 reagent (Promega Cat #G9243). For this purpose, plates were equilibrated to room temperature for 30 minutes, and then 25 μL of CellTiter-Glo 2.0 reagent was added to cells in the plate wells. Plates were then agitated on a shaker for two minutes at 500 rpm and subsequently incubated at room temperature for 10 minutes. Following incubation, the plates were spun at 3000×g for 30 seconds, then sealed with an optical adhesive cover, and luminescence readings were measured with an EnVision Plate Reader. Data was normalized using zero luminescence for baseline. A four-parameter non-linear regression curve fit was applied to dose-response data in GraphPad Prism data analysis software to determine the half-maximal growth inhibitory concentration (GI50) for each test compound.

[2] = test system: T-Rex 293 cell line SC3 cells lacking increased expression of androgen receptor protein; assay: Cellular growth inhibition, T-Rex 293 SC3 cells without doxycycline, CellTiter-Glo; format: cell-based; settings: T-Rex 293 SC3 cells not exposed to doxycycline, CellTiter-Glo 2.0
Experimental: as §1, §2, §3, §4

| Structure (SMILES) | GI50 (T47D cells) [nM] | GI50 (VCaP cells) [nM] | GI50 ([1]; 72 hours) [nM] | GI50 ([2]; 72 hours) [nM] | GI50 (T47D cells; Homo sapiens, T47D, 72 h) [nM] | GI50 (VCaP cells; Homo sapiens, VCaP, 72 h) [nM] | GI50 ([1]; 72 h) [nM] | GI50 ([2]; 72 h) [nM] |
| --- | --- | --- | --- | --- | --- | --- | --- | --- |
| Cc1sc2c(c1C)C(c1ccc(N3CCC[C@H](C(=O)NCc4ncc(C(=O)N[C@H]5C(C)(C)[C@H](Oc6ccc(C#N)c(Cl)c6)C5(C)C)cn4)C3)cc1)=N[C@@H](Cc1ncco1)c1nnc(C)n1-2 [Compound I-332] | > 3000 | > 3000 | > 3000 | > 3000 |  |  |  |  |
| Cc1sc2c(c1C)C(c1ccc(N[C@H]3CC[C@H](CNc4ncc(C(=O)N[C@H]5C(C)(C)[C@H](Oc6ccc(C#N)c(Cl)c6)C5(C)C)cn4)CC3)cc1)=N[C@@H](Cc1ncco1)c1nnc(C)n1-2 [Compound I-649] |  |  |  |  | < 500 | < 500 | < 500 | < 500 |
| Cc1sc2c(c1C)C(c1ccc(C[C@H]3C[C@@]4(CCCN(c5ncc(C(=O)N[C@H]6C(C)(C)[C@H](Oc7ccc(C#N)c(Cl)c7)C6(C)C)cn5)C4)C3)cc1)=N[C@@H](C)c1nnc(C)n1-2 [Compound I-393] |  |  |  |  | > 3000 | < 500 | < 500 | > 3000 |
| Cc1sc2c(c1C)C(c1ccc(N3C[C@@]4(F)CN(c5ncc(C(=O)N[C@H]6C(C)(C)[C@H](Oc7ccc(C#N)c(Cl)c7)C6(C)C)cn5)C[C@@]4(F)C3)cc1)=N[C@@H](C)c1nnc(C)n1-2 [Compound I-587] |  |  |  |  | < 500 | < 500 | < 500 | > 3000 |
| Cc1sc2c(c1C)C(c1ccc(NCC3CCN(c4ncc(C(=O)N[C@H]5C(C)(C)[C@H](Oc6ccc(C#N)c(Cl)c6)C5(C)C)cn4)CC3)cc1)=N[C@@H](Cc1ncco1)c1nnc(C)n1-2 [Compound I-636] |  |  |  |  | < 500 | < 500 | < 500 | < 500 |
| Cc1sc2c(c1C)C(c1ccc(C3CC(N4CCN(c5ncc(C(=O)N[C@H]6C(C)(C)[C@H](Oc7ccc(C#N)c(Cl)c7)C6(C)C)cn5)CC4)C3)cc1)=N[C@@H](Cc1ncco1)c1nnc(C)n1-2 (stereo partly drawn) [Compound I-475] |  |  |  |  | < 500 | < 500 | < 500 | 500 to 1500 |
| Cc1sc2c(c1C)C(c1ccc(OC3CC4(CCN(c5ncc(C(=O)N[C@H]6C(C)(C)[C@H](Oc7ccc(C#N)c(Cl)c7)C6(C)C)cn5)CC4)C3)cc1)=N[C@@H](CC#N)c1nnc(C)n1-2 [Compound I-229, N-[3-(3-chloro-4-cyano-phenoxy)-2,2,4,4-tetramethyl-cyclobutyl]-2-[2-[4-[(9S)-9-(cyanomethyl)-4,5,13-trimethyl-3-thia-1,8,11,12-tetrazatricyclo[8.3.0.02,6]trideca-2(6),4,7,10,12-pentaen-7-yl]phenoxy]-7-azaspiro [3.5]nonan-7-yl]pyrimidine-5-carboxamide] |  |  |  |  | > 3000 | < 500 | < 500 | > 3000 |
| Cc1sc2c(c1C)C(c1ccc(OCCC3CCN(c4ncc(C(=O)N[C@H]5C(C)(C)[C@H](Oc6ccc(C#N)c(Cl)c6)C5(C)C)cn4)CC3)cc1)=NC(Cc1ncco1)c1nnc(C)n1-2 (stereo partly drawn) [Compound I-167] |  |  |  |  | 500 to 1500 | < 500 | < 500 | 500 to 1500 |
| Cc1sc2c(c1C)C(c1ccc(C3CC(C4CCN(c5cnc(C(=O)N[C@H]6C(C)(C)[C@H](Oc7ccc(C#N)c(Cl)c7)C6(C)C)cn5)CC4)C3)cc1)=NC(C)c1nnc(C)n1-2 (stereo partly drawn) [Compound I-471] | < 500 | > 3000 | 500 to 1500 | > 3000 |  |  |  |  |
| CCNC(=O)C[C@@H]1N=C(c2ccc(OCCOCCOC3CCN(c4ncc(C(=O)N[C@H]5C(C)(C)[C@H](Oc6ccc(C#N)c(Cl)c6)C5(C)C)cn4)CC3)c(F)c2F)c2c(sc(C)c2C)-n2c(C)nnc21 [Compound I-74] |  |  |  |  |  | < 500 | < 500 | 500 to 1500 |
| Cc1sc2c(c1C)C(c1ccc(N3CCO[C@@H](CNc4ncc(C(=O)N[C@H]5C(C)(C)[C@H](Oc6ccc(C#N)c(Cl)c6)C5(C)C)cn4)C3)cc1)=NC(Cc1ncco1)c1nnc(C)n1-2 (stereo partly drawn) [Compound I-669] |  |  |  |  |  | < 500 | < 500 | < 500 |
| CCNC(=O)C[C@@H]1N=C(c2ccc(OCCCCOC3CCN(c4ncc(C(=O)NC5C(C)(C)C(Oc6ccc(C#N)c(Cl)c6)C5(C)C)cn4)CC3)cc2)c2c(sc(C)c2C)-n2c(C)nnc21 (stereo partly drawn) [Compound I-64] |  |  |  |  |  | < 500 | < 500 | < 500 |
| Cc1sc2c(c1C)C(c1ccc(Cl)cc1)=N[C@@H](CC(=O)NCCOCCCCCOC1CCN(c3ncc(C(=O)N[C@H]4C(C)(C)[C@H](Oc5ccc(C#N)c(Cl)c5)C4(C)C)cn3)CC1)c1nnc(C)n1-2 [Compound I-34] |  |  |  |  |  | < 500 | < 500 | < 500 |
| Cc1sc2c(c1C)C(c1ccc(Cl)cc1)=N[C@@H](CC(=O)NCCCOCCOC1CCN(c3ncc(C(=O)N[C@H]4C(C)(C)[C@H](Oc5ccc(C#N)c(Cl)c5)C4(C)C)cn3)CC1)c1nnc(C)n1-2 [Compound I-26] |  |  |  |  |  | < 500 | < 500 | 500 to 1500 |
| CCNC(=O)C[C@@H]1N=C(c2ccc(CCCCCCOC3CCN(c4ncc(C(=O)N[C@H]5C(C)(C)[C@H](Oc6ccc(C#N)c(Cl)c6)C5(C)C)cn4)CC3)cc2)c2c(sc(C)c2C)-n2c(C)nnc21 [Compound I-90] |  |  |  |  |  | > 3000 | < 500 | > 3000 |
| Cc1sc2c(c1C)C(c1ccc(N3CCC(C)(CNc4ncc(C(=O)N[C@H]5C(C)(C)[C@H](Oc6ccc(C#N)c(Cl)c6)C5(C)C)cn4)CC3)cc1)=NC(Cc1ncco1)c1nnc(C)n1-2 (stereo partly drawn) [Compound I-667] |  |  |  |  |  | < 500 | < 500 | < 500 |
| CCNC(=O)C[C@@H]1N=C(c2ccc(CCCCOC3CCN(c4ncc(C(=O)N[C@H]5C(C)(C)[C@H](Oc6ccc(C#N)c(Cl)c6)C5(C)C)cn4)CC3)cc2)c2c(sc(C)c2C)-n2c(C)nnc21 [Compound I-91] |  |  |  |  |  | 500 to 1500 | < 500 | 500 to 1500 |
| CCNC(=O)C[C@@H]1N=C(c2ccc(CCCCCCCOC3CCN(c4ncc(C(=O)N[C@H]5C(C)(C)[C@H](Oc6ccc(C#N)c(Cl)c6)C5(C)C)cn4)CC3)cc2)c2c(sc(C)c2C)-n2c(C)nnc21 [Compound I-92] |  |  |  |  |  | < 500 | < 500 | > 3000 |
| CCNC(=O)C[C@@H]1N=C(c2ccc(OCCCOC3CCN(c4ncc(C(=O)N[C@H]5C(C)(C)[C@H](Oc6ccc(C#N)c(Cl)c6)C5(C)C)cn4)CC3)cc2)c2c(sc(C)c2C)-n2c(C)nnc21 [Compound I-62] |  |  |  |  |  | < 500 | < 500 | < 500 |
| Cc1sc2c(c1C)C(c1ccc(Cl)cc1)=N[C@@H](CC(=O)NCCCOCCCOC1CCN(c3ncc(C(=O)N[C@H]4C(C)(C)[C@H](Oc5ccc(C#N)c(Cl)c5)C4(C)C)cn3)CC1)c1nnc(C)n1-2 [Compound I-29] |  |  |  |  |  | < 500 | < 500 | 500 to 1500 |
| Cc1sc2c(c1C)C(c1ccc(Cl)cc1)=NC(CC(=O)NCCOCCCCOC1CCN(c3ncc(C(=O)N[C@H]4C(C)(C)[C@H](Oc5ccc(C#N)c(Cl)c5)C4(C)C)cn3)CC1)c1nnc(C)n1-2 (stereo partly drawn) [Compound I-30] |  |  |  |  |  | < 500 | < 500 | < 500 |
